The results in this text go back to patent US20230192691A1, “HETEROCYCLIC COMPOUNDS AS BTK INHIBITORS” (Beijing InnoCare Pharma Tech Co., Ltd., priority 2020, published 2023).

Test [1] concerns the target T1, human recombinant BTK C481S protein (Homo sapiens, UniProt Q06187, C481S).
T1 construct: made in house
Briefly: BTK C481S activity inhibition assay (HTRF in vitro kinase assay). The test is classed as biochemical. As to conditions: 35 μM ATP, 1.5 ng/μL BTK C481S. As for the experimental part: In vitro kinase assay was used to evaluate the effects of compounds of the present invention on BTK C481S activity (Table 1).
(§1) By using the homogeneous time-resolved fluorescence (HTRF) kinase detection kit (Cisbio, catalog number 62TK0PEC), the enzymatic activity of BTK C481S is determined by detecting the phosphorylation level of the substrate in the kinase reaction. The reaction buffer contains the enzyme reaction buffer (1×) from the kit, 5 mM MgCl2, 1 mM DTT, 10 nM SEB, and 0.01% Tween-20; the kinase reaction solution contains human recombinant BTK C481S protein (purified in-house) diluted to 1.5 ng/μL with the reaction buffer; the substrate reaction solution contains biotin-labeled tyrosine kinase substrate diluted to 0.5 μM with the reaction buffer and 35 μM ATP; the detection buffer contains Eu^3+-labeled cage antibody diluted to 0.05 ng/μL and streptavidin-labeled XL665 antibody diluted to 31.25 nM with the reaction buffer; the test compound is dissolved and diluted to 100 μM with DMSO, followed by a 4-fold serial dilution with DMSO to the lowest concentration of 6.1 nM and finally 40-time dilution with the reaction buffer for each concentration point. If the IC50 value of the compound is very low, the initial concentration of the compound is reduced.
(§2) Add 4 μL test compound solution and 2 μL kinase reaction solution to a 384-well detection plate (Corning, catalog number 3674), mix well and incubate at room temperature for 15 minutes; add 4 μL substrate reaction solution and incubate for 50 minutes; add 10 μL detection buffer, mix well and stand for 60 minutes; detect signal at 620 nm and 665 nm using an Envision plate reader (Perkin Elmer). The signal value (absorbance at 665 nm/absorbance at 620 nm) is positively correlated with the degree of phosphorylation of the substrate, thereby detecting the kinase activity of BTK C481S. In this experiment, the group without BTK is the negative control (100% inhibition) and the group with BTK C481 S but no compound is the positive control (0% inhibition). The inhibition curve is plotted and the corresponding IC50 value of the test compound is calculated using XLfit software (TD Business Solutions Ltd., UK).
(Time-resolved FRET reads energy transfer from a long-lived donor to a nearby acceptor.)

The target in test [2] is T2, human-derived recombinant BTK protein (Homo sapiens, UniProt Q06187).
T2 construct: purchased Carna Biosciences 08-180
The test is described as follows: BTK activity inhibition assay (HTRF in vitro kinase assay). The class given is biochemical. As to conditions: 40 μM ATP, 0.2 ng/μL BTK. The method, then: In vitro kinase assay was used to evaluate the effects of compounds of the present invention on BTK activity (Table 1).
as §1, with “BTK” for “BTK C481S”, “SEB” for “SEB,”, “human-derived” for “human”, “(Carna Biosciences, Catalog No. 08-180)” for “(purified in-house)”, “0.2” for “1.5”, “40” for “35”
as §2, with “BTK.” for “BTK C481S.”, “BTK” for “BTK C481 S”, “(ID” for “(TD”

T1 sequence (Q06187 whole entry C481S): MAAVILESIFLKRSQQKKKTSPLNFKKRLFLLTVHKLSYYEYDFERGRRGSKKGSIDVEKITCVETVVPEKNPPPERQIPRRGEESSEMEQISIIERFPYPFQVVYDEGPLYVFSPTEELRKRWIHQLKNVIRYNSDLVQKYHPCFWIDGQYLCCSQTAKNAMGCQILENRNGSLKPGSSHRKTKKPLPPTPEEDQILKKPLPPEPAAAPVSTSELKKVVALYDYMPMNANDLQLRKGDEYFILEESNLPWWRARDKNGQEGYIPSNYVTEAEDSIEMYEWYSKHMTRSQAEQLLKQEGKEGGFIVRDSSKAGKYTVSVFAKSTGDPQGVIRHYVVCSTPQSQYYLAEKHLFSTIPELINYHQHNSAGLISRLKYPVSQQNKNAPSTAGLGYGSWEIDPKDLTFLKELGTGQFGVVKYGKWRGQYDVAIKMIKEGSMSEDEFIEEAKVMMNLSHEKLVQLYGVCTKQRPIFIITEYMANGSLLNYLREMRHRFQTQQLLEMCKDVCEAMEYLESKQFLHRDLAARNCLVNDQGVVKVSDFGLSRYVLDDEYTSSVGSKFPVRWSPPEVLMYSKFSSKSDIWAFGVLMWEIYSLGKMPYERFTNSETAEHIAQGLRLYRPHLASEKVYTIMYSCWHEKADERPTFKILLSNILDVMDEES
T2 sequence (Q06187 whole entry): as the sequence (Q06187 whole entry C481S) above, with S481C counted along it

As to `[2H]C([2H])([2H])Oc1ccc(F)cc1C(=O)NCc1ccc(-c2nc([C@H]3CC[C@H](CO)CC3)n3ncnc(N)c23)cc1` [Compound 18, N-(4-(4-amino-7-((1r,4r)-4-(hydroxymethyl)cyclohexyl)imidazo[5,1-f][1,2,4]triazin-5-yl)benzyl)-5-fluoro-2-(methoxy-d3)benzamide], the concentration for half-maximal inhibition (IC50) in test [1] turned out to be 0.8 nM; in test [2], 0.7 nM.
Regarding `COc1ccc(F)cc1C(=O)NCc1ccc(-c2nc([C@]3(C)CC[C@](C)(C(=O)O)CC3)n3ccnc(N)c23)cc1` [Compound 41, (1s,4s)-4-(8-amino-1-(4-((5-fluoro-2-methoxybenzamido)methyl)phenyl)imidazo[1,5-a]pyrazin-3-yl)-1,4-dimethylcyclohexane-1-carboxylic acid], the IC50 amounted to 5.3 nM in test [1] and 2.6 nM in test [2].
In the case of `COc1ccc(F)cc1C(=O)NCc1ccc(-c2nc([C@H]3CC[C@H](CO)CC3)n3ccnc(N)c23)cc1` [Compound 5, N-(4-(8-amino-3-((1r,4r)-4-(hydroxymethyl)cyclohexyl)imidazo[1,5-a]pyrazin-1-yl)benzyl)-5-fluoro-2-methoxybenzamide], the concentration for half-maximal inhibition (IC50) in test [1] came to 2.6 nM; in test [2], 4.6 nM.
As for `COc1ccc(F)cc1C(=O)NCc1ccc(-c2nc(C3CCCOC3)n3ccnc(N)c23)cc1` (stereo not shown) [Compound 21, N-(4-(8-amino-3-(tetrahydro-2H-pyran-3-yl)imidazo[1,5-a]pyrazin-1-yl)benzyl)-5-fluoro-2-methoxybenzamide], the IC50 was 1.8 nM in test [1] and 1.7 nM in test [2].
`COc1ccc(F)cc1C(=O)NCc1ccc(-c2nc(C34CC(C(=O)O)(C3)C4)n3ncnc(N)c23)cc1` [Compound 31, 3-(4-amino-5-(4-((5-fluoro-2-methoxybenzamido)methyl)phenyl)imidazo[5,1-f][1,2,4]triazin-7-yl)bicyclo[1.1.1]pentane-1-carboxylic acid]: the IC50 in test [1] is 3 nM; in test [2] it was 0.6 nM.
In the case of `COc1ccc(F)cc1C(=O)NCc1ccc(-c2nc(C34CCC(C(=O)O)(CC3)C4)n3ccnc(N)c23)cc1` [Compound 40, 4-(8-amino-1-(4-((5-fluoro-2-methoxybenzamido)methyl)phenyl)imidazo[1,5-a]pyrazin-3-yl)bicyclo[2.2.1]heptane-1-carboxylic acid], the IC50 in test [1] worked out at 1.1 nM; in test [2], 0.4 nM.
`COc1ccc(F)cc1C(=O)NCc1ccc(-c2nc(C34CCC(C(=O)N5CCOCC5)(CC3)CC4)n3ccnc(N)c23)cc1` [Compound 37, N-(4-(8-amino-3-(4-(morpholine-4-carbonyl)bicyclo[2.2.2]octan-1-yl)imidazo[1,5-a]pyrazin-1-yl)benzyl)-5-fluoro-2-methoxybenzamide]: the IC50 came to 1.9 nM in test [1] and 1.3 nM in test [2].
The like results for `COC(=O)C12CCC(c3nc(-c4ccc(CNC(=O)c5cc(F)ccc5OC)cc4)c4c(N)nccn34)(CC1)CC2` [Compound 33, methyl 4-(8-amino-1-(4-((5-fluoro-2-methoxybenzamido)methyl)phenyl)imidazo[1,5-a]pyrazin-3-yl)bicyclo[2.2.2]octane-1-carboxylate] were, in that order, 1.8 nM and 0.8 nM.
With `Nc1nccn2c(C3CCC(CO)OC3)nc(-c3ccc(CNC(=O)c4ccccn4)cc3)c12` (stereo not shown) [Compound 9, N-(4-(8-amino-3-(6-(hydroxymethyl)tetrahydro-2H-pyran-3-yl)imidazo[1,5-a]pyrazin-1-yl)benzyl)picolinamide], the IC50 came out at 498 nM in test [1] and 718 nM in test [2].
For `COc1ccc(F)cc1C(=O)NCc1ccc(-c2nn([C@H]3CC[C@H](O)CC3)c3ccnc(N)c23)cc1` [Compound 4, N-(4-(4-amino-1-((1r,4r)-4-hydroxycyclohexyl)-1H-pyrazolo[4,3-c]pyridin-3-yl)benzyl)-5-fluoro-2-methoxybenzamide], the values for the half-maximal inhibitory concentration (IC50) in test [1] and in test [2] were 3 nM and 2.3 nM, respectively.
Take `COc1ccccc1C(=O)NCc1ccc(-c2nc(C3CCC(CO)OC3)n3ccnc(N)c23)cc1F` (stereo not shown) [Compound 11, N-(4-(8-amino-3-(6-(hydroxymethyl)tetrahydro-2H-pyran-3-yl)imidazo[1,5-a]pyrazin-1-yl)-2-fluorobenzyl)-2-methoxybenzamide]: the IC50 was 3.9 nM in test [1] and 20 nM in test [2].
For `COc1ccc(F)cc1C(=O)NCc1ccc(-c2nc([C@@H]3CCN(C(=O)C4CC4)C3)n3ncnc(N)c23)cc1` [Compound 24, (R)-N-(4-(4-amino-7-(1-(cyclopropanecarbonyl)pyrrolidin-3-yl)imidazo[5,1-f][1,2,4]triazin-5-yl)benzyl)-5-fluoro-2-methoxybenzamide], the IC50 in test [1] turned out to be 2.5 nM; in test [2], 3.9 nM.
The like results for `CNC(=O)C12CCC(c3nc(-c4ccc(CNC(=O)c5cc(F)ccc5OC)cc4)c4c(N)nccn34)(CC1)CC2` [Compound 36, 4-(8-amino-1-(4-((5-fluoro-2-methoxybenzamido)methyl)phenyl)imidazo[1,5-a]pyrazin-3-yl)-N-methylbicyclo[2.2.2]octane-1-carboxamide] were, in that order, 3.4 nM and 0.9 nM.
In the case of `COc1ccc(F)cc1C(=O)NCc1ccc(-n2c(=O)n(C34CCC(C(=O)N5CCOCC5)(CC3)CC4)c3ncnc(N)c32)cc1` [Compound 54, N-(4-(6-amino-9-(4-(morpholine-4-carbonyl)bicyclo[2.2.2]octan-1-yl)-8-oxo-8,9-dihydro-7H-purin-7-yl)benzyl)-5-fluoro-2-methoxybenzamide], the results for the IC50 in test [1] and in test [2] were 6.1 nM and 5.8 nM, respectively.
For the molecule `COc1ccc(F)cc1C(=O)NCc1ccc(-c2nc([C@H]3CC[C@H](CO)CC3)n3ncnc(N)c23)cc1` [Compound 14, N-(4-(4-amino-7-((1r,4r)-4-(hydroxymethyl)cyclohexyl)imidazo[5,1-f][1,2,4]triazin-5-yl)benzyl)-5-fluoro-2-methoxybenzamide], the 50% inhibitory concentration (IC50) in test [1] was 2.9 nM; in test [2], 3.2 nM.
The like results for `COc1ccc(F)cc1C(=O)NCc1ccc(-n2c(=O)n(C3CCOCC3)c3ccnc(N)c32)cc1` [Compound 52, N-(4-(4-amino-2-oxo-1-(tetrahydro-2H-pyran-4-yl)-1,2-dihydro-3H-imidazo[4,5-c]pyridin-3-yl)benzyl)-5-fluoro-2-methoxybenzamide] were, in that order, 30 nM and 7.2 nM.
`COc1ccc(F)cc1C(=O)NCc1ccc(-c2nc(C3CCCOC3)n3ncnc(N)c23)cc1` (stereo not shown) [Compound 16, N-(4-(4-amino-7-(tetrahydro-2H-pyran-3-yl)imidazo[5,1-f][1,2,4]triazin-5-yl)benzyl)-5-fluoro-2-methoxybenzamide]: the figures for the IC50 in test [1] and in test [2] were 1.1 nM and 1.8 nM, respectively.
As for `COc1ccc(F)cc1C(=O)NCc1ccc(-c2nn(C3CCOCC3)c3ccnc(N)c23)cc1` [Compound 1, N-(4-(4-amino-1-(tetrahydro-2H-pyran-4-yl)-1H-pyrazolo[4,3-c]pyridin-3-yl)benzyl)-5-fluoro-2-methoxybenzamide], the concentration for half-maximal inhibition (IC50) in test [1] worked out at 3.5 nM; in test [2], 17 nM.
On to `COc1ccc(F)cc1C(=O)NCc1ccc(-c2nc(C3CCCC3)n3ncnc(N)c23)cc1` [Compound 12, N-(4-(4-amino-7-cyclopentylimidazo[5,1-f][1,2,4]triazin-5-yl)benzyl)-5-fluoro-2-methoxybenzamide], for which the half-inhibitory concentration (IC50) in test [2] worked out at 3 nM.

The IC50 is the midpoint of a concentration-inhibition curve.
